Reference: ChEMBL document CHEMBL3826911, “Rational design and synthesis of novel anti-prostate cancer agents bearing a 3,5-bis-trifluoromethylphenyl moiety” (Bioorg Med Chem Lett, 2016)

Columns and labels:
[1] = Antiproliferative activity against human VCaP cells assessed as reduction in cell viability after 96 hrs by propidium iodide staining based fluorescence assay; type: functional
HepG2 = test: Cytotoxicity against human HepG2 cells assessed as cell viability after 72 hrs by MTT assay; type: functional, cell-based; settings: for AC50 / minimal effective concentration: HepG2, 72 h; for minimal effective concentration: read-out: MEC
[2] = Antiproliferative activity against human DU145 cells assessed as reduction in cell viability after 96 hrs by propidium iodide staining based fluorescence assay; type: functional, DU-145
CWR22R = test: Antiproliferative activity against human 22Rv1 cells assessed as reduction in cell viability after 96 hrs by propidium iodide staining based fluorescence assay; type: functional
[3] = Half life in human liver microsomes at 3 uM in presence of NADPH by LC-MS/MS analysis; type: ADME
LNCaP = test: Antiproliferative activity against human LNCAP cells assessed as reduction in cell viability after 96 hrs by propidium iodide staining based fluorescence assay; type: functional
hERG (KCNH2) = hERG (KCNH2) (Homo sapiens, UniProt Q12809); test: Inhibition of human ERG transfected in CHO cells assessed as blockade of tail current at 25 uM by patch clamp assay; type: cell-based; settings: CHO cells transfected with human ERG
Albumin = Albumin (Homo sapiens, UniProt P02768); test: Binding affinity to human serum albumin at 5 uM by equilibrium dialysis based LC-MS/MS analysis; type: ADME; settings: read-out: PB (converted)
[4] = target: T1, Androgen receptor (Homo sapiens) (UniProt P10275); settings: GripTite-293, at 10 µM
T1 sequence (whole entry): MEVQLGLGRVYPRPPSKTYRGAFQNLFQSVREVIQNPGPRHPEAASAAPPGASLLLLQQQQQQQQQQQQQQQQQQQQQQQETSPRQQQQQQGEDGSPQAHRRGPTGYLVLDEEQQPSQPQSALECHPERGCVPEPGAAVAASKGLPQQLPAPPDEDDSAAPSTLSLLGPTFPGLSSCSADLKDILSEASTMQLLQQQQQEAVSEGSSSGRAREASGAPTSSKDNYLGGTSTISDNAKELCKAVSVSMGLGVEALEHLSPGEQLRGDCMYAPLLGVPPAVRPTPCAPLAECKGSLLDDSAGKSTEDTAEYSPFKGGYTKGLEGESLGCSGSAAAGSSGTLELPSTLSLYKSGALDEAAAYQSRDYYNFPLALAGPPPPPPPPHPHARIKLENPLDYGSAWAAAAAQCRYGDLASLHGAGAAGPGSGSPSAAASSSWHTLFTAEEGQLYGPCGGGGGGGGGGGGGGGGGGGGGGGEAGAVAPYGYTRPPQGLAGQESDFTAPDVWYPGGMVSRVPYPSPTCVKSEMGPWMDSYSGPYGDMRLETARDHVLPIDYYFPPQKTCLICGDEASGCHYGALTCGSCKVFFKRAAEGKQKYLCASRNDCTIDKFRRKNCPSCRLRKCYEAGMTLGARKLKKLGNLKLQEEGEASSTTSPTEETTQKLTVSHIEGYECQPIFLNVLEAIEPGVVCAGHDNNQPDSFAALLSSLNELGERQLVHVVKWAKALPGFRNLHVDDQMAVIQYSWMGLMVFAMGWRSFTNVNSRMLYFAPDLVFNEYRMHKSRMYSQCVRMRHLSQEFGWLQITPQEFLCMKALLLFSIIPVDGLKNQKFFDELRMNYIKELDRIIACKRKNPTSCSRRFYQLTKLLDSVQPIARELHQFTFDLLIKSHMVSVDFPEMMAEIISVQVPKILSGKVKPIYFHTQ

Androgen receptor = target: T2, Androgen receptor (Homo sapiens, UniProt P10275); type: cell-based, GripTite-293
T2 sequence (P10275 whole entry): T1 sequence (whole entry)
Description: Antagonist activity at GAL4 DBD-fused androgen receptor LBD (unknown origin) transfected in UAS-bla GripTite 293 cells assessed as inhibition of R1881-induced receptor activation after 16 to 24 hrs by beta-lactamase reporter gene assay

[5] = Protein binding in human plasma by equilibrium dialysis method; type: ADME, cell-free; settings: read-out: PPB (converted)
Liver microsome = test: Metabolic stability in human liver microsomes at 3 uM in presence of NADPH by LC-MS/MS analysis; type: ADME
[6] = Homo sapiens, VCaP, 96 h, read-out: IC50
[7] = Homo sapiens, DU-145, 96 h, read-out: IC50
[8] = Homo sapiens, 22Rv1, 96 h, read-out: IC50
[9] = Homo sapiens, LNCaP, 96 h, read-out: IC50

hERG (KCNH2), sequence (Q12809 whole entry): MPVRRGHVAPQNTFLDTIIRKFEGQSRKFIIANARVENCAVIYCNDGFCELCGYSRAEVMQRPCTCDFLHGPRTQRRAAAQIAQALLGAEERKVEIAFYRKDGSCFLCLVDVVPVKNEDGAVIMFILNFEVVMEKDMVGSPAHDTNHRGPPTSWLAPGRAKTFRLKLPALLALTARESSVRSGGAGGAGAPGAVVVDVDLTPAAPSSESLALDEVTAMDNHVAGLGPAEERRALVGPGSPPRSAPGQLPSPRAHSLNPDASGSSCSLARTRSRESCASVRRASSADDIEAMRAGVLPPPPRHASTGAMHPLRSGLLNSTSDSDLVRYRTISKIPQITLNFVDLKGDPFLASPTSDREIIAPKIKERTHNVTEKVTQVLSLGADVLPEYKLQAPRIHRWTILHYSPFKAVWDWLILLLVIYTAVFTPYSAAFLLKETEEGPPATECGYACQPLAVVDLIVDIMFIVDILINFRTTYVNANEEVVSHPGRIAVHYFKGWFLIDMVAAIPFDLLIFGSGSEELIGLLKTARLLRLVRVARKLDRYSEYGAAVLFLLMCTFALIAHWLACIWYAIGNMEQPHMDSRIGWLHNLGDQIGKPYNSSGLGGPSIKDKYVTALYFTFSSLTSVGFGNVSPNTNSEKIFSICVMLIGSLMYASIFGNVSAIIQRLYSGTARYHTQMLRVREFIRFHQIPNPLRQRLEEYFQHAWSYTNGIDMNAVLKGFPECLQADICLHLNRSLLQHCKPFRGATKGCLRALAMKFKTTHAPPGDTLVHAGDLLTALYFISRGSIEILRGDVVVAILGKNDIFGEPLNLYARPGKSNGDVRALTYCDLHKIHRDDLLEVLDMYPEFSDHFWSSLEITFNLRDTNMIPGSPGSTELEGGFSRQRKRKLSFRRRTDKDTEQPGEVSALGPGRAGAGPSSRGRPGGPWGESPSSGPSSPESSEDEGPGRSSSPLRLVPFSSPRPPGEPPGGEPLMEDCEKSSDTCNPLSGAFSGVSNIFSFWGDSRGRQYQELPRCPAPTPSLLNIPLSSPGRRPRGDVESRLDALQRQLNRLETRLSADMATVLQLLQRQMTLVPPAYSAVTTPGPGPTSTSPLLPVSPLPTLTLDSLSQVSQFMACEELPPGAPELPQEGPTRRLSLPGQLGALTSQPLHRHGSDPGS
Albumin, sequence (P02768 whole entry): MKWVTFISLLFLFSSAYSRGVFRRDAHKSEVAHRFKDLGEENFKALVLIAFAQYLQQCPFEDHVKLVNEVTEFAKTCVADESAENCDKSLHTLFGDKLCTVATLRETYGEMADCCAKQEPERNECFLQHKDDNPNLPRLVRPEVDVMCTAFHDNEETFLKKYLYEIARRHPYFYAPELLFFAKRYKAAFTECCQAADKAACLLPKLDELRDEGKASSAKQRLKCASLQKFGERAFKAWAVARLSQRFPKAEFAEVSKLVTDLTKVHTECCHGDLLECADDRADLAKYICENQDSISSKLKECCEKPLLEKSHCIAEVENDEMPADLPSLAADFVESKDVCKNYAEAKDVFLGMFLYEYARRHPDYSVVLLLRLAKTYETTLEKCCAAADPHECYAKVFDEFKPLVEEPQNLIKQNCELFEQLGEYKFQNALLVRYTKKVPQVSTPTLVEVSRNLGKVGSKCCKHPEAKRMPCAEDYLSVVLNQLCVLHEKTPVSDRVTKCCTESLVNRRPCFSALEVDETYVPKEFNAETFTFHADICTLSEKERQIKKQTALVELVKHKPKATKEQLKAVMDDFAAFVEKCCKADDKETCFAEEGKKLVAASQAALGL

| SMILES | IC50 [1, 6] [µM] | IC50 [2, 7] [µM] | IC50 (CWR22R; [8]) [µM] | IC50 (LNCaP; [9]) [µM] | Activity (HepG2) | other results |
| --- | --- | --- | --- | --- | --- | --- |
| C[C@](O)(CSc1cc(C(F)(F)F)cc(C(F)(F)F)c1)C(=O)Nc1ccc(C#N)c(C(F)(F)F)c1 | 0.84 | 2.66 | 1.13 | 0.79 | – | AC50 (HepG2): 2.35 µM; minimal effective concentration (HepG2): 1.22 µM; half-life at 3 µM [3]: 0.108 h |
| CC1(C)C(=O)N(c2ccc([N+](=O)[O-])cc2C(F)(F)F)C(=S)N1c1cc(C(F)(F)F)cc(C(F)(F)F)c1 | 18.6 | 10 | 6.97 | 4.67 | Dose-dependent effect | inhibition at 25 µM (hERG (KCNH2)): 9.44%; fraction unbound at 5 µM (Albumin): 0.001; half-life at 3 µM [3]: 1.19 h |
| CC(O)(CS(=O)(=O)c1ccccc1OC(F)(F)F)C(=O)Nc1cc(C(F)(F)F)cc(C(F)(F)F)c1 (stereo unspecified) | 9.95 | 12.9 | 8.99 | 8.02 | Dose-dependent effect | inhibition at 25 µM (hERG (KCNH2)): 13.4%; fraction unbound at 5 µM (Albumin): 0.217; half-life at 3 µM [3]: 4.83 h |
| CC(O)(CSc1cc(C(F)(F)F)cc(C(F)(F)F)c1)C(=O)Nc1ccc([N+](=O)[O-])c(C(F)(F)F)c1 (stereo unspecified) | 1.53 | 2.78 | 1.5 | 1.5 | Dose-dependent effect | inhibition [4]: 90%; IC50 (Androgen receptor): 0.71 µM |
| CC(O)(CSc1cc(C(F)(F)F)cc(C(F)(F)F)c1)C(=O)Nc1ccc(C#N)cc1C(F)(F)F (stereo unspecified) | 6.65 | 9.09 | 4.65 | 7.76 | Dose-dependent effect | – |
| CC(O)(COc1cc(C(F)(F)F)cc(C(F)(F)F)c1)C(=O)Nc1ccc(C(F)(F)F)cc1 (stereo unspecified) | 4.15 | 9.23 | 8.49 | 3.35 | Dose-dependent effect | – |
| C[C@](O)(CS(=O)(=O)c1ccc(F)cc1)C(=O)Nc1ccc(C#N)c(C(F)(F)F)c1 [(R)-BICALUTAMIDE] | 51.6 | 45.4 | 46.2 | – | – | AC50 (HepG2): 54.3 µM; fraction unbound [5]: 0.04; half-life at 3 µM [3]: 3.57 h |
| C[C@](O)(CS(=O)(=O)c1cc(C(F)(F)F)cc(C(F)(F)F)c1)C(=O)Nc1ccc(C#N)c(C(F)(F)F)c1 | 4.11 | 6.36 | 2.5 | 1.99 | Dose-dependent effect | inhibition at 25 µM (hERG (KCNH2)): 29.3%; fraction unbound at 5 µM (Albumin): 0.001; Stability (Liver microsome): Stable |
| CC(O)(CS(=O)(=O)c1cc(C(F)(F)F)cc(C(F)(F)F)c1)C(=O)Nc1ccc([N+](=O)[O-])c(C(F)(F)F)c1 (stereo unspecified) | 3.3 | 5.26 | 2.15 | 2.1 | – | AC50 (HepG2): 9.01 µM; minimal effective concentration (HepG2): 3.6 µM; inhibition [4]: 93%; IC50 (Androgen receptor): 3.1 µM; half-life at 3 µM [3]: 9.45 h |
| CC(O)(COc1cc(C(C)(C)C)cc(C(C)(C)C)c1)C(=O)Nc1ccc(C#N)c(C(F)(F)F)c1 (stereo unspecified) | 2.98 | 3.15 | 2.27 | 2.67 | Dose-dependent effect | – |
| CC(O)(CSc1ccccc1OC(F)(F)F)C(=O)Nc1cc(C(F)(F)F)cc(C(F)(F)F)c1 (stereo unspecified) | 2.9 | 6.41 | 2.94 | 2.91 | Dose-dependent effect | – |
| CNC(=O)c1ccc(N2C(=S)N(c3cc(C(F)(F)F)cc(C(F)(F)F)c3)C(=O)C2(C)C)cc1 | 19.8 | 47.9 | 26.4 | 11.3 | Dose-dependent effect | – |
| CC(O)(CS(=O)(=O)c1cccc(OC(F)(F)F)c1)C(=O)Nc1cc(C(F)(F)F)cc(C(F)(F)F)c1 (stereo unspecified) | 9.99 | 14.1 | 12.8 | 9.34 | Dose-dependent effect | – |
| CC(O)(CS(=O)(=O)c1ccccc1C(F)(F)F)C(=O)Nc1cc(C(F)(F)F)cc(C(F)(F)F)c1 (stereo unspecified) | 8.55 | 11 | 9.45 | 8.51 | Dose-dependent effect | – |
| CC(O)(CSc1cc(C(F)(F)F)cc(C(F)(F)F)c1)C(=O)Nc1ccc(C(F)(F)F)cc1 (stereo unspecified) | 9.88 | 16.4 | 9.75 | 9.61 | Dose-dependent effect | – |
| CC(O)(COc1cc(C(F)(F)F)cc(C(F)(F)F)c1)C(=O)Nc1ccc(C#N)c(C(F)(F)F)c1 (stereo unspecified) | 2.47 | 4.7 | 2.64 | 3.01 | Dose-dependent effect | inhibition at 25 µM (hERG (KCNH2)): 7.64%; fraction unbound at 5 µM (Albumin): 0.053; half-life at 3 µM [3]: 32.2 h |
| CC(O)(CSc1cc(C(F)(F)F)cc(C(F)(F)F)c1)C(=O)Nc1ccc(C#N)c(C(F)(F)F)c1 (stereo unspecified) | 2.73 | 2.85 | 1.9 | 2.34 | Dose-dependent effect | – |
| CC1(C)C(=O)N(c2ccc(C#N)cc2C(F)(F)F)C(=S)N1c1cc(C(F)(F)F)cc(C(F)(F)F)c1 | – | – | – | – | Dose-dependent effect | IC50 ([1]; vcap): ND(Insoluble); IC50 ([2]; du-145): ND(Insoluble); IC50 (CWR22R; cwr22r): ND(Insoluble); IC50 (LNCaP; lncap): ND(Insoluble) |
| CC(O)(CSc1cccc(OC(F)(F)F)c1)C(=O)Nc1cc(C(F)(F)F)cc(C(F)(F)F)c1 (stereo unspecified) | 9.29 | 9.61 | 6.42 | 7.76 | Dose-dependent effect | – |
| CC(O)(CS(=O)(=O)c1cccc(C(F)(F)F)c1)C(=O)Nc1cc(C(F)(F)F)cc(C(F)(F)F)c1 (stereo unspecified) | 9.98 | 11.5 | 10.3 | 9.5 | Dose-dependent effect | – |
| CC(O)(COc1cc(C(F)(F)F)cc(C(F)(F)F)c1)C(=O)Nc1ccc([N+](=O)[O-])c(C(F)(F)F)c1 (stereo unspecified) | 1.66 | 2.9 | 1.09 | 0.99 | Dose-dependent effect | – |
